According to patent US20060264419A1 (priority 2003, published 2006):

What was measured:
5-HT2A receptors = 5-HT2A receptors (Rattus norvegicus, UniProt P14842); test: in-vitro affinity to 5-HT2A receptors, displacement of [3H]ketanserine (Example A1); assay type: binding; conditions: read-out: HT2A IC50
Excerpt: The 5-HT2A receptors are exposed both to [^3H]ketanserine (a substance which is known for its affinity to the receptor) and also to the test compound. The decrease in the affinity of [^3H]ketanserine to the receptor is an indication of the affinity of the test substance to the 5-HT2A receptor.

5 HT2C receptor = target: T1, 5 HT2C receptor (Homo sapiens, UniProt P28335); test: affinity to the 5 HT2C receptor; assay type: binding
T1 sequence (P28335 33-458): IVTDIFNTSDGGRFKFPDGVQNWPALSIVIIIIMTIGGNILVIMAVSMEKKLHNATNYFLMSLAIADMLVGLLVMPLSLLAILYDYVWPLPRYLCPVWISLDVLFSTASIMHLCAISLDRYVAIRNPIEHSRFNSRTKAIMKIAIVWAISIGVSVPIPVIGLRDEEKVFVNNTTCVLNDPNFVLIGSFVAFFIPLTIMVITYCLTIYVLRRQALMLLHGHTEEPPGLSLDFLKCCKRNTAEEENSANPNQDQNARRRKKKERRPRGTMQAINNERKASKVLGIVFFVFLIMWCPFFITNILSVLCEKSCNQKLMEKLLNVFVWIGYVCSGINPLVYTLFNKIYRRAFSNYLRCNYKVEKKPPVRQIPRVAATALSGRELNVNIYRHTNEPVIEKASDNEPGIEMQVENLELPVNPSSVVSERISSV

5-HT2A receptors, sequence (P14842 whole entry): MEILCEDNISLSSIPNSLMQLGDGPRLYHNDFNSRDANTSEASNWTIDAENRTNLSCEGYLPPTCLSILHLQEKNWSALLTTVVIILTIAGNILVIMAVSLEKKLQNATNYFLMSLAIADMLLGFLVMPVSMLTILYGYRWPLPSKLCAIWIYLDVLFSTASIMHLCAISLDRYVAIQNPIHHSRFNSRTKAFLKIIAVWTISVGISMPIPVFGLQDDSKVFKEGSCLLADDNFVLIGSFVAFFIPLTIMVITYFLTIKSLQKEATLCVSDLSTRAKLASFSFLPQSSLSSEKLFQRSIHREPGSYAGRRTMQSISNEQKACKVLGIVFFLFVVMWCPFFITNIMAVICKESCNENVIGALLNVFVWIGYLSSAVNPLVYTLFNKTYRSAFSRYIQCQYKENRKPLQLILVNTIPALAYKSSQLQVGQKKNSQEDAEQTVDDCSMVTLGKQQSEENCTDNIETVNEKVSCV

| SMILES | IC50 (5-HT2A receptors) [nM] | IC50 (5 HT2C receptor) [nM] |
| --- | --- | --- |
| Cn1cccc1CNCc1cnn(-c2ccc(-c3ccccc3)cc2)c1-c1ccccc1 [Example 925, (1-Biphenyl-4-yl-5-phenyl-1H-pyrazol-4-yl-methyl)-(1-methyl-1H-pyrrol-2-ylmethyl)amine] | 26 | 520 |
| CN1CCN(Cc2cnn(-c3ccc(-c4ccc(C#N)cc4)cc3)c2-c2ccccc2F)CC1 [Example 952, 4′-[5-(2-Fluorophenyl)-4-(4-methyl-piperazin-1-ylmethyl)pyrazol-1-yl]biphenyl-4-carbonitrile] | 53 | 790 |
| OC1CCN(Cc2cnn(-c3ccc(-c4ccc(F)cc4)cc3)c2-c2ccc(Cl)cc2)C1 (stereo not drawn) [Example 1003, 1-[5-(4-Chlorophenyl)-1-(4′-fluoro-biphenyl-4-yl)-1H-pyrazol-4-ylmethyl]pyrrolidin-3-ol] | 170 | 1000 |
| Fc1ccccc1-c1c(CCN2CCOCC2)cnn1-c1ccc(-c2ccccc2)cc1 [Example 898, 4-{2-[1-Biphenyl-4-yl-5-(2-fluoro-phenyl)-1H-pyrazol-4-yl]ethyl}morpholine] | 12 | 1000 |
| CN1CCN(Cc2cnn(-c3ccc(-c4ccc(F)cc4)cc3)c2-c2ccc(F)cc2)CC1 [Example 923, 1-[1-(4′-Fluorobiphenyl-4-yl)-5-(4-fluoro-phenyl)-1H-pyrazol-4-ylmethyl]-4-methylpiperazine] | 25 | 750 |
| CN1CCN(Cc2cnn(-c3ccc(-c4ccc(F)cc4)cc3)c2-c2ccccc2F)CC1 [Example 902, 1-[1-(4′-Fluorobiphenyl-4-yl)-5-(2-fluoro-phenyl)-1H-pyrazol-4-ylmethyl]-4-methyl-piperazine] | 13.1 | 215 |
| CC(C)N1CCN(Cc2cnn(-c3ccc(-c4ccc(F)cc4)cc3)c2-c2cccc(Cl)c2)CC1 [Example 943, 1-[5-(3-Chlorophenyl)-1-(4′-fluorobiphenyl-4-yl)-1H-pyrazol-4-ylmethyl]-4-isopropylpiperazine] | 41 | 1000 |
| CN1CCN(Cc2cnn(-c3ccc(-c4cc(F)ccc4F)cc3)c2-c2ccccc2F)CC1 [Example 953, 1-[1-(2′,5′-Difluorobiphenyl-4-yl)-5-(2-fluoro-phenyl)-1H-pyrazol-4-ylmethyl]-4-methyl-piperazine] | 55 | 470 |
| COCCNCc1cnn(-c2ccc(-c3ccccc3)cc2)c1-c1ccccc1F [Example 905, [1-Biphenyl-4-yl-5-(2-fluorophenyl)-1H-pyrazol-4-ylmethyl]-(2-methoxyethyl)amine] | 16 | 1000 |
| CN1CCN(Cc2cnn(-c3ccc(C(F)(F)F)cn3)c2-c2ccccc2F)CC1 [Example 941, 1-[5-(2-Fluorophenyl)-1-(5-trifluoro-methylpyridin-2-yl)-1H-pyrazol-4-ylmethyl]-4-methyl-piperazine] | 39 | 1000 |
| CC(C)(C)OC(=O)N1CCN(Cc2cnn(-c3ccc(-c4ccccc4)cc3)c2-c2ccccc2F)CC1 [Example 971, tert-Butyl 4-[1-biphenyl-4-yl-5-(2-fluoro-phenyl)-1H-pyrazol-4-ylmethyl]piperazine-1-carboxylate] | 82 | 1000 |
| CN1CCN(Cc2cnn(-c3ccc(-c4ccc5c(c4)OCCO5)cc3)c2-c2ccccc2F)CC1 [Example 901, 1-[1-[4-(2,3-Dihydrobenzo[1,4]dioxin-6-yl)-phenyl]-5-(2-fluorophenyl)-1H-pyrazol-4-yl-methyl]-4-methyl-piperazine] | 13 | 870 |
